As usually defined, the IC50 is the concentration that gives 50% inhibition. Low readings indicate greater potency in that assay, high ones weaker potency in that assay.

The structures appear in SMILES notation.

This passage reports IC50 results from ChEMBL document CHEMBL1139638, “Synthesis and biological evaluation of chalcones and their derived pyrazoles as potential cytotoxic agents” (Bioorg Med Chem Lett, 2005).

One experiment concerns HCT-15. The experiment in a line: Antiproliferative activity against human colon cancer HCT-15 cell line. Type of experiment: functional, cell-based.
Another experiment concerns SW-620. The experiment in a line: Inhibitory concentration against human colon cancer SW-620 cell line. Type of experiment: functional, cell-based. The following applies: Homo sapiens, SW-620.
A further experiment relates to OVCAR-5. The experiment in a line: Antiproliferative activity against human cancer OVCAR-5 cell line. Type of experiment: functional, cell-based. The following applies: Homo sapiens, OVCAR-5.
The test system of the next experiment is PC-3. The experiment in a line: Antiproliferative activity against prostate cancer PC-3 cell line. Conditions: Homo sapiens, PC-3. The format is functional, cell-based, Homo sapiens.
The test system of a further experiment is HOP-62. The experiment is described as follows: Antiproliferative activity against human cancer HOP-62 cell line. Type of experiment: functional, cell-based. The following applies: Homo sapiens, HOP-62.
The test system of a further experiment is HT-29. The experiment in a line: Antiproliferative activity against Colon cancer HT-29 cell line. Type of experiment: functional, cell-based, Homo sapiens. Conditions: Homo sapiens, HT-29.
For a further experiment, the system named is A549. The experiment is described as follows: Antiproliferative activity against human cancer A-549 cell line. The following applies: Homo sapiens, A549. The format is functional, cell-based.
Another experiment relates to HEp-2. The experiment in a line: Antiproliferative activity against human cancer Hep-2 cell line. Type of experiment: functional, cell-based.
In another experiment the test system is SiHa. The experiment is described as follows: Antiproliferative activity against human SIHA cell line. The format is functional, cell-based. The following applies: Homo sapiens, SiHa.
The test system of another experiment is SNB-78. The experiment in a line: Antiproliferative activity against human cancer SNB-78 cell line. Type of experiment: functional, cell-based. Conditions: Homo sapiens, SNB-78.
Another experiment deals with DU-145. The experiment in a line: Antiproliferative activity against human cancer DU-145 cell line. Conditions: Homo sapiens, DU-145. The format is functional, cell-based.
The test system of another experiment is SK-OV-3. The experiment is described as follows: Antiproliferative activity against human cancer SKOV-3 cell line. The format is functional, cell-based.

Consider `COc1cccc(C2NN=C(c3cc(OC)c(OC)c(OC)c3)C2O)c1` (configuration not stated), for which the concentration for half-maximal inhibition (IC50) amounted to 7.85 µM in the experiment on HCT-15; 7.35 µM with SW-620; 7.05 µM in the experiment on OVCAR-5; 28 µM in the experiment on PC-3; 8.1 µM in the experiment on HOP-62; 5.95 µM in the experiment on HT-29. Half-maximal inhibition in the experiment with A549 (IC50) required 7.2 µM.
Regarding `COc1cc(C2=NNC(c3ccc(F)cc3)C2O)cc(OC)c1OC` (configuration not stated), the half-inhibitory concentration (IC50) with HCT-15 was 8.45 µM; in the experiment with SW-620, 5.85 µM; with OVCAR-5 it was 7.15 µM; in the experiment with HOP-62, 6.55 µM; in the experiment with HT-29 it was 6.01 µM; with A549, 5.72 µM.
Regarding `COc1cc(/C=C/C(=O)c2ccc(OC(C)=O)cc2)cc(OC)c1OC`, the IC50 turned out to be 7.75 µM with HCT-15; 13.1 µM in the experiment on HEp-2; 13.3 µM in the experiment on SiHa; 56.1 µM with HOP-62; 8.37 µM with HT-29; 12 µM with A549.
As for `COc1ccc(-c2cc(-c3cc(OC)c(OC)c(OC)c3)nn2C(C)=O)cc1OC`, the 50% inhibitory concentration (IC50) stood at 16 µM in the experiment with HCT-15; 16.1 µM in the experiment with SW-620; 16.7 µM in the experiment on OVCAR-5; 54.8 µM with SiHa; 22.1 µM in the experiment with HOP-62; 10.4 µM in the experiment on HT-29. In the experiment on A549, this compound returned an IC50 of 10 µM.
For the compound `COc1cc(-c2cc(-c3cc(OC)c(OC)c(OC)c3)[nH]n2)cc(OC)c1OC`, the IC50 with HCT-15 was found to be 6.01 µM; with HEp-2 it was 6.43 µM; in the experiment with SNB-78 it was 22 µM; with SW-620, 10 µM; with OVCAR-5 it was 9.95 µM; in the experiment with PC-3 it was 13.3 µM. Besides, the IC50 in the experiment on SiHa amounted to 25 µM; with HT-29, 5.62 µM; in the experiment with A549, 7.58 µM; in the experiment on DU-145, 35.1 µM.
As to `COc1cc(-c2cc(-c3ccc(F)cc3)[nH]n2)cc(OC)c1OC`, the IC50 in the experiment on HCT-15 was 0.48 µM; in the experiment with HEp-2 it was 3.81 µM; with SNB-78, 22.4 µM; with SW-620, 5.9 µM; in the experiment on OVCAR-5, 6.45 µM; in the experiment on PC-3 it was 8.93 µM. The concentration for half-maximal inhibition (IC50) was determined as 1.08 µM with SiHa; 0.56 µM in the experiment on HOP-62; 4.75 µM in the experiment with HT-29; 3.8 µM in the experiment with A549; 3.87 µM in the experiment on DU-145.
`COc1cc(C2=NNC(c3ccc4c(c3)OCO4)C2O)cc(OC)c1OC` (configuration not stated): the 50% inhibitory concentration (IC50) amounted to 40 µM in the experiment on HEp-2; 53.7 µM in the experiment with SNB-78; 6.75 µM with SW-620; 6.81 µM in the experiment on OVCAR-5; 34.5 µM in the experiment on PC-3; 43 µM in the experiment on SiHa. Further, the IC50 in the experiment on HOP-62 was determined as 20.3 µM; in the experiment with HT-29, 5.89 µM; in the experiment on A549 it was 6.74 µM; in the experiment with DU-145 it was 34.7 µM.
As to `COc1cc(C(=O)/C=C/c2cc(OC)c(OC)c(OC)c2)ccc1O`, the IC50 in the experiment on HCT-15 was found to be 7.75 µM; in the experiment on HEp-2 it was 6.01 µM; in the experiment on SiHa, 40.4 µM; with HOP-62 it was 20.2 µM; with HT-29, 20.2 µM; with A549 it was 19.2 µM.
Regarding `COc1cc(C(=O)/C=C/c2ccc(Cl)cc2)cc(OC)c1OC`, the IC50 in the experiment on HCT-15 was 24 µM; in the experiment with HEp-2 it was 12 µM; in the experiment on SNB-78 it was 25.4 µM; in the experiment with OVCAR-5, 16.8 µM; with PC-3, 24.1 µM; with SiHa, 40 µM. The IC50 was found to be 26.9 µM in the experiment with HOP-62 and 28.1 µM in the experiment on DU-145.
On to `COc1cc(C(=O)/C=C/c2cc(OC)c(OC)c(OC)c2)ccc1OC(C)=O`, for which the IC50 in the experiment on SK-OV-3 stood at 8.35 µM; in the experiment with HCT-15, 7.75 µM; in the experiment with HEp-2, 6.95 µM; in the experiment on SiHa, 33 µM; with HOP-62, 9.2 µM; with HT-29 it was 10.5 µM. The IC50 in the experiment with A549 came out at 15.6 µM.
In the case of `COc1ccc(-c2cc(-c3cc(OC)c(OC)c(OC)c3)[nH]n2)cc1OC`, the IC50 in the experiment on HCT-15 came to 0.25 µM; with HEp-2 it was 8.41 µM; in the experiment on SW-620, 0.23 µM; in the experiment with OVCAR-5, 4.4 µM; in the experiment with PC-3 it was 2.64 µM; in the experiment with SiHa, 3.63 µM. Besides, the IC50 in the experiment on HOP-62 was determined as 0.93 µM; with HT-29, 0.47 µM; in the experiment on A549, 0.87 µM.
`COc1cc(/C=C/C(=O)c2cc(OC)c(OC)c(OC)c2)cc(OC)c1OC`: the half-inhibitory concentration (IC50) in the experiment on HCT-15 worked out at 6.55 µM; with HEp-2 it was 7.75 µM; in the experiment on OVCAR-5, 9.23 µM; in the experiment with SiHa it was 8.55 µM; with HOP-62 it was 10 µM.
